Experimental data taken from US20240228448A1 (Washington University, priority 2021, published 2024).
Like-named read-outs stand apart in the source and are kept apart here. Each block holds one compound with its values, some of them ahead of it.

Legend:
S1P4 = biological target: T1, S1P4 (Homo sapiens, UniProt O95977); assay: competitive S1Ps cell membrane binding assay against [32P]S1P, S1P4
T1 sequence (O95977 1-384): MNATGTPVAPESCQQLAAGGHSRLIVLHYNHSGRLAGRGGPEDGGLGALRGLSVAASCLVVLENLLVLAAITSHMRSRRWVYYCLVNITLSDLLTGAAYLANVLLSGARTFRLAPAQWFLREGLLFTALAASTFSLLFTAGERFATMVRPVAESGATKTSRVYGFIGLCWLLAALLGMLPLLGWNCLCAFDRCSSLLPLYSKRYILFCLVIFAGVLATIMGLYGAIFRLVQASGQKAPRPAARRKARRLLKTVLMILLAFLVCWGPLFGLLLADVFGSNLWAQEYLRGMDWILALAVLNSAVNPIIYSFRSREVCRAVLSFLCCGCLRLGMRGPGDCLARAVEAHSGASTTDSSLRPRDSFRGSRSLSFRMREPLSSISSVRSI

S1P2-5 = assay: competitive S1Ps cell membrane binding assay against [32P]S1P, S1P2-5 reported together
Text: (§1) One way to measure affinity is use of a general competition binding assay.

S1P1 = S1P1 (Homo sapiens, UniProt P21453); assay: competitive S1Ps cell membrane binding assay against [32P]S1P, S1P1
Chain of S1P1 (P21453 whole entry, species assumed): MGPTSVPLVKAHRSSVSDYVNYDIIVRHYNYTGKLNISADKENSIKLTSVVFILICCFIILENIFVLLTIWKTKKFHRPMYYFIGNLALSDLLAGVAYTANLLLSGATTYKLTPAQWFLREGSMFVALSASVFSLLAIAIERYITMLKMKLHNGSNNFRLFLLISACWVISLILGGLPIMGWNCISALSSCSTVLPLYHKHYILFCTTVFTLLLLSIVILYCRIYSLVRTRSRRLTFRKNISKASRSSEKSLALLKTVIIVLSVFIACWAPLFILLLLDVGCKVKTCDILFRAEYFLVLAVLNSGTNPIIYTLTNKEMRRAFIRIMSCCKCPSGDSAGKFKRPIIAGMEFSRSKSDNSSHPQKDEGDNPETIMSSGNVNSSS
Text: as §1

S1P5 = S1P5 (Homo sapiens, UniProt Q9H228); assay: competitive S1Ps cell membrane binding assay against [32P]S1P, S1P5; conditions: Table 5; read-out: IC50 (nM) S1P5
Chain of S1P5 (Q9H228 whole entry, species assumed): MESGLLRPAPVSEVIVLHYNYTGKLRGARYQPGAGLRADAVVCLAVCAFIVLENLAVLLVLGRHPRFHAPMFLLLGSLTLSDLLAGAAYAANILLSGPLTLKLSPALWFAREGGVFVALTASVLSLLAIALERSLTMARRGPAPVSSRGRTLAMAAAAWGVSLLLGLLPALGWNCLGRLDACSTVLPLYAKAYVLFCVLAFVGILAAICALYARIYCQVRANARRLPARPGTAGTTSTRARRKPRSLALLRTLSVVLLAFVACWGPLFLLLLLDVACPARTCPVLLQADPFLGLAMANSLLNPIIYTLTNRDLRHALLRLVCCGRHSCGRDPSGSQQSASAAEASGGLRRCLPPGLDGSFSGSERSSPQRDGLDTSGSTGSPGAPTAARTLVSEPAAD
Text: as §1

S1P3 = S1P3 (Homo sapiens, UniProt Q99500); assay: competitive S1Ps cell membrane binding assay against [32P]S1P, S1P3; conditions: Table 6
Chain of S1P3 (Q99500 whole entry, species assumed): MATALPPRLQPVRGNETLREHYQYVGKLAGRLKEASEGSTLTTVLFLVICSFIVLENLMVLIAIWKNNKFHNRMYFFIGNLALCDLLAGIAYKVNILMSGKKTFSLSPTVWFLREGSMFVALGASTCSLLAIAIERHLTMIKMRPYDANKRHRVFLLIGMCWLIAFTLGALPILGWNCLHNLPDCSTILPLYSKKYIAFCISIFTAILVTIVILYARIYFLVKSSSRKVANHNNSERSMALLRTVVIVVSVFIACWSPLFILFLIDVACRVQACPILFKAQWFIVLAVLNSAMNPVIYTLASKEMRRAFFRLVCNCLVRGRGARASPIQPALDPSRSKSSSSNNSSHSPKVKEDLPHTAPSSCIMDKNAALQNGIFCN

S1P2 = S1P2 (Homo sapiens, UniProt O95136); assay: competitive S1Ps cell membrane binding assay against [32P]S1P, S1P2; conditions: Table 6
Chain of S1P2 (O95136 whole entry, species assumed): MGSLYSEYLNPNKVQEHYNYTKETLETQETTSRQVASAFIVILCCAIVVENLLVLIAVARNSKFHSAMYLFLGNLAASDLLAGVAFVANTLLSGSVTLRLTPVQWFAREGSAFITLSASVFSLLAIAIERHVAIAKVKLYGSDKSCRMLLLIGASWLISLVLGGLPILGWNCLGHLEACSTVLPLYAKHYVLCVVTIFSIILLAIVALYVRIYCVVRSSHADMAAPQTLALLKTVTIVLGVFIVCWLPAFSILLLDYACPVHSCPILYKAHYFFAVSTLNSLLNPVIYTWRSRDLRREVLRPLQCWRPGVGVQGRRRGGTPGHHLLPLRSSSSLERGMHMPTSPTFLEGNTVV

[1] = Table 7, read-out: IC50 (nM) S1P2-5
[2] = read-out: IC50 (nM) S1P1, Table 5

SMILES: Cc1ccccc1-c1ccc(-c2nc(-c3ccc(CN(C)CCC(=O)O)c(F)c3)no2)cc1C(F)(F)F [TZ33-21]
IC50 (S1P4; Table 5, read-out: IC50 (nM) S1P4): > 1000 nM
IC50 (S1P2-5; [1]): > 1000 nM
IC50 (S1P2-5; read-out: IC50 for S1P2-5): > 1000 nM

SMILES: Cc1ccccc1-c1ccc(-c2nc(-c3ccc(COCCO)c(I)c3)no2)cc1C(F)(F)F [TZ73-127]
IC50 (S1P1; IC50 (nM) S1P1, Table 5): 66.3 nM

SMILES: Cc1ccccc1-c1ccc(-c2nc(-c3ccc(CO)c(F)c3)no2)cc1C(F)(F)F [TZ73-135]
IC50 (S1P2-5; [1]): > 1000 nM

SMILES: Cc1ccccc1-c1ccc(-c2nc(-c3ccc(CN(C)CCC(=O)O)c(I)c3)no2)cc1C(F)(F)F [TZ73-143]
IC50 (S1P1; IC50 (nM) S1P1, Table 5): 5.2 ± 2.7 nM

SMILES: CN(CCC(=O)O)Cc1ccc(-c2noc(-c3ccc(OCCF)c(C(F)(F)F)c3)n2)cc1I [TZ73-147]
IC50 (S1P1; [2]): 33.1 ± 11.1 nM

SMILES: Cc1ccccc1-c1ccc(-c2nc(-c3ccc(CO)cc3)no2)cc1C(F)(F)F [TZ82-1]
IC50 (S1P5): 55.6 nM
IC50 (S1P1; IC50 (nM) S1P1, Table 5): 4.6 nM

SMILES: Cc1ccccc1-c1ccc(-c2nc(-c3ccc(CCCCO)cc3)no2)cc1C(F)(F)F [TZ82-2]
IC50 (S1P5): 764 nM
IC50 (S1P1; IC50 (nM) S1P1, Table 5): 9.8 nM

SMILES: Cc1ccccc1-c1ccc(-c2nc(-c3ccc(COCCO)c(F)c3)no2)cc1C(F)(F)F [TZ82-3]
IC50 (S1P2-5; [1]): > 1000 nM

SMILES: Cc1ccccc1-c1ccc(-c2nc(-c3cccc4[nH]ccc34)no2)cc1C(F)(F)F [TZ82-4]
IC50 (S1P5): 28.4 nM
IC50 (S1P1; IC50 (nM) S1P1, Table 5): 1.1 ± 0.1 nM

SMILES: Cc1ccccc1-c1ccc(-c2nc(-c3ccc(CO)c(F)c3)no2)cc1C(F)F [TZ82-26]
IC50 (S1P5): 85.2 nM
IC50 (S1P1; IC50 (nM) S1P1, Table 5): 2.9 nM

SMILES: Cc1ccccc1-c1ccc(-c2nc(-c3ccc(COCCCCCO)c(F)c3)no2)cc1C(F)(F)F [TZ82-29]
IC50 (S1P1; IC50 (nM) S1P1, Table 5): 4.9 nM
IC50 (S1P1; IC50 (nM) S1P1, Table 7): 16.1 ± 0.3 nM
IC50 (S1P2-5; [1]): > 1000 nM

Second part, the compound after the results:

IC50 (S1P2-5; [1]): > 1000 nM
SMILES: OCCOCc1ccc(-c2noc(-c3ccc(OCCF)c(C(F)(F)F)c3)n2)cc1 [TZ48-77]

IC50 (S1P2-5; [1]): > 1000 nM
SMILES: OCc1ccc(-c2noc(-c3ccc(OCCF)c(C(F)(F)F)c3)n2)cc1F [TZ67-138]

IC50 (S1P1; [2]): 34 ± 2.4 nM
SMILES: FCCOc1ccc(-c2nc(-c3ccc4cc[nH]c4c3)no2)cc1C(F)(F)F [TZ73-11]

IC50 (S1P1; IC50 (nM) S1P1, Table 5): 157 ± 24 nM
SMILES: OCCn1ccc2ccc(-c3noc(-c4ccc(OCCF)c(C(F)(F)F)c4)n3)cc21 [TZ73-14]

IC50 (S1P1; IC50 (nM) S1P1, Table 5): 57 ± 4.6 nM
SMILES: OCCn1ccc2cc(-c3noc(-c4ccc(OCCF)c(C(F)(F)F)c4)n3)ccc21 [TZ73-15]

IC50 (S1P1; IC50 (nM) S1P1, Table 5): 15 ± 2.6 nM
SMILES: OC(c1ccc(-c2noc(-c3ccc(OCCF)c(C(F)(F)F)c3)n2)cc1)C(F)(F)F (stereo not shown) [TZ73-27]

IC50 (S1P1; IC50 (nM) S1P1, Table 5): 21 ± 2.5 nM
SMILES: CC(O)c1ccc(-c2noc(-c3ccc(OCCF)c(C(F)(F)F)c3)n2)cc1 (stereo not shown) [TZ73-28]

IC50 (S1P1; IC50 (nM) S1P1, Table 5): > 1000 nM
SMILES: CN(C(=O)OC(C)(C)C)c1cccc(-c2noc(-c3ccc(OCCF)c(C(F)(F)F)c3)n2)c1 [TZ73-124]

IC50 (S1P1; IC50 (nM) S1P1, Table 5): 118 nM
SMILES: OCCOCc1ccc(-c2noc(-c3ccc(OCCF)c(C(F)(F)F)c3)n2)cc1I [TZ73-126]

IC50 (S1P1; IC50 (nM) S1P1, Table 5): 17 ± 7 nM
SMILES: OCCOCc1ccc(-c2noc(-c3ccc(OCCF)c(C(F)(F)F)c3)n2)cc1F [TZ73-144]

IC50 (S1P3): > 1000 nM
IC50 (S1P2): > 1000 nM
IC50 (S1P4; Table 6, read-out: IC50 for S1P4): > 1000 nM
SMILES: CN(CCC(=O)O)Cc1ccc(-c2noc(-c3ccc(OCCF)c(C(F)(F)F)c3)n2)cc1F [TZ82-24]

IC50 (S1P2-5; [1]): > 1000 nM
SMILES: FCCOc1ccc(-c2nc(-c3cccc4[nH]ccc34)no2)cc1C(F)(F)F [TZ82-34]

IC50 (S1P1; [2]): 98 ± 26 nM
SMILES: FCCOc1ccc(-c2nc(-c3cccc4cc[nH]c34)no2)cc1C(F)(F)F [TZ82-35]

IC50 (S1P1; IC50 (nM) S1P1, Table 5): 57 ± 7.6 nM
SMILES: FCCOc1ccc(-c2nc(-c3ccc4[nH]cnc4c3)no2)cc1C(F)(F)F [TZ82-36]

IC50 (S1P1; IC50 (nM) S1P1, Table 5): 28 ± 5.8 nM
SMILES: OCc1nc2cc(-c3noc(-c4ccc(OCCF)c(C(F)(F)F)c4)n3)ccc2[nH]1 [TZ82-37]

IC50 (S1P1; IC50 (nM) S1P1, Table 5): > 1000 nM
SMILES: CC(C)(C)OC(=O)Nc1cccc(-c2noc(-c3ccc(OCCF)c(C(F)(F)F)c3)n2)c1 [TZ82-40]
